Reference: paper PMC11286772, “Structural basis of antagonist selectivity in endothelin receptors” (Cell Discovery, 2024)
Where a chain is given by its changes, count along the chain named. Read-outs that look alike come from different tables or passages of the source.

Experiments:
Type in all cases: cell-based
ETA WT = target: T1, ETA WT (Homo sapiens, UniProt P25101); test: Calcium mobilization assay, antagonist mode (ET-1 stimulated), CHO-K1 cells
T1 construct: expressed in transfected cells; host or cells: CHO-K1
T1 sequence (P25101 21-427): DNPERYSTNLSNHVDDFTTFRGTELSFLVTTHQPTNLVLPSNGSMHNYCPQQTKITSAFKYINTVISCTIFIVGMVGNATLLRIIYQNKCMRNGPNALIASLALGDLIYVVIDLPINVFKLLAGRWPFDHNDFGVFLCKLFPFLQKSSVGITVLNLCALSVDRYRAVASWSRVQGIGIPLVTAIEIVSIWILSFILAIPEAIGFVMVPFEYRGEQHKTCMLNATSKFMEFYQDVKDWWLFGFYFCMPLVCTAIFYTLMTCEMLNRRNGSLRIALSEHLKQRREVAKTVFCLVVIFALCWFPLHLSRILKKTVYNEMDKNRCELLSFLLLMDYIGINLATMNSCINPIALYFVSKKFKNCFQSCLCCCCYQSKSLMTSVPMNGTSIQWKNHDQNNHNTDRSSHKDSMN
Procedure: (§1) CHO-K1 cells were cultured in Ham’s F-12K (Kaighn’s) Medium (Gibco-Thermo Fisher Scientific) supplemented with 10% (v/v) fetal bovine serum (FBS; Gibco-Thermo Fisher Scientific), and 100 U/mL Penicillin-Streptomycin (Gibco-Thermo Fisher Scientific) in a humidified incubator at 37 °C with 5% CO2. Cells were seeded in 6-cm dishes overnight; when the density reached 60%–80%, the cells were transferred to F12K Medium supplemented with 10% FBS and transfected with 1.5 μg DNA encoding the ETA WT or mutants or 3 μg DNA encoding the ETB WT or mutants using TransIT2020 (Mirus Biosciences). The next day, transfected cells were harvested from the plate using Versene buffer (Gibco-Thermo Fisher Scientific) and seeded into black-sided, clear-bottomed 384-well plates (Agilent) at a density of 1,5000 cells per well. After 20 h, the 1% dFBS medium was removed, and cells were loaded with 20 μL/well of 1× Calcium 6 dye (Molecular Devices) and incubated at 37 °C for 1 h in the dark. […] All data were analyzed using GraphPad Prism 8 and the data are from at least three independent replicate experiments. All plots are shown as means ± SEM. Data were determined using one-way ANOVA followed by Dunnett’s multiple test compared with WT. The top value was normalized to 100% and the bottom value was normalized to 0% for the final presentation. Nonlinear curve fit was performed using a four-parameter logistic equation (log (agonist vs response) or log (inhibitor vs response)).

ETA F161^3.28A = target: T2, ETA F161^3.28A (Homo sapiens, UniProt P25101, F161A); test: Calcium mobilization assay, antagonist mode
T2 construct: expressed in transfected cells; host or cells: CHO-K1
T2 sequence (P25101 21-427 F161A): T1 sequence (P25101 21-427) with F141A
Procedure: as §1

ETA L259^5.42A = target: T3, ETA L259^5.42A (Homo sapiens, UniProt P25101, L259A); test: Calcium mobilization assay, antagonist mode
T3 construct: expressed in transfected cells; host or cells: CHO-K1
T3 sequence (P25101 21-427 L259A): T1 sequence (P25101 21-427) with L239A
Procedure: as §1

ETA L322^6.51A = target: T4, ETA L322^6.51A (Homo sapiens, UniProt P25101, L322A); test: Calcium mobilization assay, antagonist mode
T4 construct: expressed in transfected cells; host or cells: CHO-K1
T4 sequence (P25101 21-427 L322A): T1 sequence (P25101 21-427) with L302A
Procedure: as §1

ETA R326^6.55A = target: T5, ETA R326^6.55A (Homo sapiens, UniProt P25101, R326A); test: Calcium mobilization assay, antagonist mode
T5 construct: expressed in transfected cells; host or cells: CHO-K1
T5 sequence (P25101 21-427 R326A): T1 sequence (P25101 21-427) with R306A
Procedure: as §1

ETA Y129^2.53A = target: T6, ETA Y129^2.53A (Homo sapiens, UniProt P25101, Y129A); test: Calcium mobilization assay, antagonist mode
T6 construct: expressed in transfected cells; host or cells: CHO-K1
T6 sequence (P25101 21-427 Y129A): T1 sequence (P25101 21-427) with Y109A
Procedure: as §1

ETA Y129^2.53F = target: T7, ETA Y129^2.53F (Homo sapiens, UniProt P25101, Y129F); test: Calcium mobilization assay, antagonist mode
T7 construct: expressed in transfected cells; host or cells: CHO-K1
T7 sequence (P25101 21-427 Y129F): T1 sequence (P25101 21-427) with Y109F
Procedure: as §1

ETA Y129^2.53H = target: T8, ETA Y129^2.53H (Homo sapiens, UniProt P25101, Y129H); test: Calcium mobilization assay, antagonist mode
T8 construct: expressed in transfected cells; host or cells: CHO-K1
T8 sequence (P25101 21-427 Y129H): T1 sequence (P25101 21-427) with Y109H
Procedure: as §1

ETA Y263^5.46A = target: T9, ETA Y263^5.46A (Homo sapiens, UniProt P25101, Y263A); test: Calcium mobilization assay, antagonist mode
T9 construct: expressed in transfected cells; host or cells: CHO-K1
T9 sequence (P25101 21-427 Y263A): T1 sequence (P25101 21-427) with Y243A
Procedure: as §1

ETB H150^2.53Y = target: T10, ETB H150^2.53Y (Homo sapiens, UniProt P24530, H150Y); test: Calcium mobilization assay, antagonist mode
T10 construct: expressed in transfected cells; host or cells: CHO-K1
T10 sequence (P24530 27-442 H150Y): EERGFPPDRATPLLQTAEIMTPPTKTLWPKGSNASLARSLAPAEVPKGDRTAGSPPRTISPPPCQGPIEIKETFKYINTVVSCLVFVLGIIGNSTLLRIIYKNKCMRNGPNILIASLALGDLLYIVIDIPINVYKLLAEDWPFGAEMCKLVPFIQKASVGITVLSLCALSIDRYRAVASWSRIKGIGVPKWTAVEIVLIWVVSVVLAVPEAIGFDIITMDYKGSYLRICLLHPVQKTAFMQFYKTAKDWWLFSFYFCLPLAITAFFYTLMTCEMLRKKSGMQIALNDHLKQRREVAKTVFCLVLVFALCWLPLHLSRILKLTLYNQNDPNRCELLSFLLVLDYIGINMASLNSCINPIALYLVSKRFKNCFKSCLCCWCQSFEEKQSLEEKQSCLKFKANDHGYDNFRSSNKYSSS
Procedure: as §1

[1] = target: T11, ETB V177^3.28F+H150^2.53Y (Homo sapiens, UniProt P24530, H150Y/V177F); test: Calcium mobilization assay, antagonist mode
T11 construct: expressed in transfected cells; host or cells: CHO-K1
T11 sequence (P24530 27-442 H150Y/V177F): T10 sequence (P24530 27-442 H150Y) with V151F
Procedure: as §1

[2] = CHO-K1 cells, n = 5, read-out: IC50, inhibition activity on ETA in calcium mobilization assay
[3] = read-out: pIC50±S.E.M. (converted)

IC50 (ETA WT; [2]) [nM] | IC50 (ETA WT; [3]) [nM] | IC50 (ETA F161^3.28A) [nM] | IC50 (ETA L259^5.42A) [nM] | IC50 (ETA L322^6.51A) [nM] | IC50 (ETA R326^6.55A) [nM] | IC50 (ETA Y129^2.53A) [nM] | IC50 (ETA Y129^2.53F) [nM] | IC50 (ETA Y129^2.53H) [nM] | IC50 (ETA Y263^5.46A) [nM] | SMILES | IC50 (ETB H150^2.53Y) [nM] | IC50 [1] [nM]
0.6 | 0.389 | 89.1 | 15500 | 575 | 7940 | 204 | 2.34 | 575 | 813 | COC(c1ccccc1)(c1ccccc1)[C@H](Oc1nc(C)cc(C)n1)C(=O)O [ambrisentan] | – | –
1.3 | 1.17 | 17.8 | 234 | 347 | 36.3 | 1020 | 1.2 | 891 | 15.5 | CCCNS(=O)(=O)Nc1ncnc(OCCOc2ncc(Br)cn2)c1-c1ccc(Br)cc1 [macitentan, N-[5-(4-bromophenyl)-6-[2-[(5-bromo-2-pyrimidinyl)oxy]ethoxy]-4-pyrimidinyl]-N’-propylsulfamide] | – | –
– | – | – | – | – | – | – | – | – | – | COc1nc(C)cnc1NS(=O)(=O)c1cccnc1-c1ccc(-c2nnco2)cc1 [zibotentan] | 56200 | 33100
